Patent US11339144B2 (Navitor Pharmaceuticals, Inc., priority 2017, dated 2022)

Legend:
[1] = target: HA-GST-Rheb (GTP-γ-S loaded) activating mTORC1 (Homo sapiens (Human), UniProt Q15382); assay: Rheb-dependent in vitro kinase assay (Rheb-IVK; LanthaScreen or Western readout); format: biochemical; settings: Rheb-dependent in vitro kinase assay; read-out: IVK IC50
Rheb = Rheb (Homo sapiens (Human), UniProt Q15382); assay: Affinity Selection Mass Spectrometry (ASMS); format: binding; settings: affinity (R3/R0) in Affinity Selection Mass Spectrometry assay
Outline: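 Affinity selection used 2 μM compound with 60 μM Rheb and 180 μM GDP for 30 min at room temperature. After 10 kDa ultrafiltration washes, protein was denatured in MeCN and bound compound quantified by C18 UPLC with Q-TOF MS, against a no-protein control.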

Chain of HA-GST-Rheb (GTP-γ-S loaded) activating mTORC1 (Q15382 1-181): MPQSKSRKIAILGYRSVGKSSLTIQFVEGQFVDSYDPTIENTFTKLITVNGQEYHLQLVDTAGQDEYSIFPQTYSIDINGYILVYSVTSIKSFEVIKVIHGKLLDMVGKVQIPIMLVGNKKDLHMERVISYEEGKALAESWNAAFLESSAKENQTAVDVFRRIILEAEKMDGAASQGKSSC
Chain of Rheb (Q15382 1-169 limits assumed): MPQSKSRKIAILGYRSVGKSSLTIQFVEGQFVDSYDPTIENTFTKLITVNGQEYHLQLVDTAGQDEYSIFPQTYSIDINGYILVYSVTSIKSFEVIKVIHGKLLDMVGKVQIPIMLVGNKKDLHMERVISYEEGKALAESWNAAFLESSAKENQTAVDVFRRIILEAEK

| IC50 [1] | ASMS (R3/R0) (Rheb) | SMILES |
| --- | --- | --- |
| > 100 µM | A (an affinity (R3/R0)>100%) | CN(C)c1cc(-c2nc3cc(Cl)c(Cl)cc3[nH]2)ccn1 [I-351] |
| > 3 µM | A (an affinity (R3/R0)>100%) | OCc1nc2cc(OCc3ccc(OC(F)(F)F)cc3)c(Cl)c(Cl)c2[nH]1 [I-352, (6,7-dichloro-5-(4-(trifluoromethoxy)benzyloxy)-1H-benzo[d]imidazol-2-yl)methanol] |
| 10 to 100 µM | A (an affinity (R3/R0)>100%) | Clc1ccc(COc2cc3nc(-c4ccncc4)[nH]c3c(Cl)c2Cl)cc1 [I-354, 6,7-dichloro-5-(4-chlorobenzyloxy)-2-(pyridin-4-yl)-1H-benzo[d]imidazole] |
| 10 to 100 µM | A (an affinity (R3/R0)>100%) | OCc1nc2cc(SCc3ccc(Cl)cc3)c(Cl)c(Cl)c2[nH]1 [I-356, (6,7-dichloro-5-(4-chlorobenzylthio)-1H-benzo[d]imidazol-2-yl)methanol] |
| > 100 µM | A (an affinity (R3/R0)>100%) | Clc1c(Br)cc2nc(-c3ccncc3)[nH]c2c1Cl [I-357] |
| 10 to 100 µM | A (an affinity (R3/R0)>100%) | Clc1cc2nc(-c3ccnc4[nH]ccc34)[nH]c2cc1Cl [I-359, 5,6-dichloro-2-(1H-pyrrolo[2,3-b]pyridin-4-yl)-1H-benzo[d]imidazole] |
| > 100 µM | A (an affinity (R3/R0)>100%) | CN1CCC(CCNC(=O)c2ccc(-c3nc4cc(Cl)c(Cl)cc4[nH]3)cc2)CC1 [I-362] |
| 10 to 100 µM | A (an affinity (R3/R0)>100%) | COC(=O)c1ccc(-c2nc3cc(Cl)c(Cl)cc3[nH]2)cc1 [I-363, methyl 4-(5,6-dichloro-1H-benzo[d]imidazol-2-yl)benzoate] |
| 10 to 100 µM | C (an affinity (R3/R0)<20%) | O=C(O)c1ccc(Cn2c(-c3ccncc3)nc3cc(Cl)c(Cl)cc32)cc1 [I-365, 4-((5,6-dichloro-2-(pyridin-4-yl)-1H-benzo[d]imidazol-1-yl)methyl)benzoic acid] |
| 100 to 300 µM | A (an affinity (R3/R0)>100%) | CN1CCN(c2ccc(-c3nc4cc(Cl)c(Cl)cc4[nH]3)cc2)CC1 [I-366, 5,6-dichloro-2-(4-(4-methylpiperazin-1-yl)phenyl)-1H-benzo[d]imidazole] |
| > 100 µM | A (an affinity (R3/R0)>100%) | Clc1cc2nc(-c3ccc(-c4ccncc4)cc3)[nH]c2cc1Cl [I-372] |
| 10 to 100 µM | C (an affinity (R3/R0)<20%) | OC1CC(COc2c(Cl)c(Cl)cc3c2nc2n3COC2)CC1O (stereo not drawn) [I-373, 4-((6,7-dichloro-1,3-dihydrobenzo[d]oxazolo[3,4-a]imidazol-5-yloxy)methyl)cyclopentane-1,2-diol] |
| > 100 µM | C (an affinity (R3/R0)<20%) | CC(C)(C)OC(=O)c1ccc(Cn2c(-c3ccncc3)nc3cc(Cl)c(Cl)cc32)cc1 [I-374] |
| < 10 µM | A (an affinity (R3/R0)>100%) | OCc1nc2cc(OCc3ccc(Cl)cc3)c(Cl)c(Cl)c2[nH]1 [I-375, (6,7-dichloro-5-(4-chlorobenzyloxy)-1H-benzo[d]imidazol-2-yl)methanol] |
| > 100 µM | C (an affinity (R3/R0)<20%) | OCc1nc2c(OCC3CCCC3O)c(Cl)c(Cl)cc2[nH]1 (stereo not drawn) [I-379, 2-((5,6-dichloro-2-(hydroxymethyl)-1H-benzo[d]imidazol-4-yloxy)methyl)cyclopentanol] |
| > 100 µM | C (an affinity (R3/R0)<20%) | OCc1nc2c(OCC3COCC3O)c(Cl)c(Cl)cc2[nH]1 (stereo not drawn) [I-381] |
| 100 to 300 µM | C (an affinity (R3/R0)<20%) | Nc1cc(CCOc2c(Cl)c(Cl)cc3[nH]c(CO)nc23)ccn1 [I-382] |
| 100 to 300 µM | C (an affinity (R3/R0)<20%) | OCc1nc2c(OCC3CCCCC3O)cc(Cl)cc2[nH]1 (stereo not drawn) [I-390, 2-((6-chloro-2-(hydroxymethyl)-1H-benzo[d]imidazol-4-yloxy)methyl)cyclohexanol] |
| < 10 µM | A (an affinity (R3/R0)>100%) | OCc1nc2c(OCC3CCCCC3)c(Cl)c(Cl)cc2[nH]1 [I-395, (5,6-dichloro-4-(cyclohexylmethoxy)-1H-benzo[d]imidazol-2-yl)methanol] |
| 10 to 100 µM | C (an affinity (R3/R0)<20%) | OCc1nc2c(OCC3CCCC(O)C3)c(Cl)c(Cl)cc2[nH]1 (stereo not drawn) [I-396, 3-((5,6-dichloro-2-(hydroxymethyl)-1H-benzo[d]imidazol-4-yloxy)methyl)cyclohexanol] |
| 10 to 100 µM | C (an affinity (R3/R0)<20%) | OCc1nc2c(OCC3CCC(O)CC3)c(Cl)c(Cl)cc2[nH]1 (stereo not drawn) [I-399, 4-((5,6-dichloro-2-(hydroxymethyl)-1H-benzo[d]imidazol-4-yloxy)methyl)cyclohexanol] |
| 10 to 100 µM | C (an affinity (R3/R0)<20%) | Clc1ccc2nc(-c3ncco3)n(Cc3ccc(-c4nnn[nH]4)cc3)c2c1 [I-411, 2-(1-(4-(1H-tetrazol-5-yl)benzyl)-6-chloro-1H-benzo[d]imidazol-2-yl)oxazole] |
| 10 to 100 µM | C (an affinity (R3/R0)<20%) | c1ccc(Oc2cccc3c2nc(-c2ncco2)n3Cc2ccc(-c3nnn[nH]3)cc2)cc1 [I-421, 2-(1-(4-(1H-tetrazol-5-yl)benzyl)-4-phenoxy-1H-benzo[d]imidazol-2-yl)oxazole] |
| > 3 µM | C (an affinity (R3/R0)<20%) | Cn1c(CO)nc2cc(OCc3ccccc3)c(Cl)cc21 [I-425, (5-(benzyloxy)-6-chloro-1-methyl-1H-benzo[d]imidazol-2-yl)methanol] |
| > 3 µM | C (an affinity (R3/R0)<20%) | OCc1nc2cc(OCc3ccccc3)c(Cl)cc2n1Cc1ccc(-c2nnn[nH]2)cc1 [I-437, (1-(4-(1H-tetrazol-5-yl)benzyl)-5-(benzyloxy)-6-chloro-1H-benzo[d]imidazol-2-yl)methanol] |
| 10 to 100 µM | C (an affinity (R3/R0)<20%) | OCc1nc2c(OC[C@H]3CCCC[C@@H]3O)c(Cl)c(Cl)cc2[nH]1 [I-439, 2-((5,6-dichloro-2-(hydroxymethyl)-1H-benzo[d]imidazol-4-yloxy)methyl)cyclohexanol] |
| 10 to 100 µM | C (an affinity (R3/R0)<20%) | OCc1nc2cc(Cl)c(OCc3ccccc3)cc2n1Cc1ccc(-c2nnn[nH]2)cc1 [I-440, (1-(4-(1H-tetrazol-5-yl)benzyl)-6-(benzyloxy)-5-chloro-1H-benzo[d]imidazol-2-yl)methanol] |
| > 100 µM | C (an affinity (R3/R0)<20%) | OCc1nc2cc(OCc3ccccc3F)c(Cl)cc2[nH]1 [I-481] |
| > 100 µM | A (an affinity (R3/R0)>100%) | OCc1nc2cc(OCc3ccc(Cl)cc3)c(Cl)cc2[nH]1 [I-486, (6-chloro-5-(4-chlorobenzyloxy)-1H-benzo[d]imidazol-2-yl)methanol] |

| SMILES | IC50 [1] | ASMS (R3/R0) (Rheb) |
| --- | --- | --- |
| Clc1cc2nc(-c3cccnc3)[nH]c2c(Cl)c1Cl [I-355] | > 100 µM | B (an affinity (R3/R0) between 100% and 20%) |
| OCc1nc2cc(Sc3ccc(Cl)cc3Cl)c(Cl)c(Cl)c2[nH]1 [I-358, (6,7-dichloro-5-(2,4-dichlorophenylthio)-1H-benzo[d]imidazol-2-yl)methanol] | 10 to 100 µM | B (an affinity (R3/R0) between 100% and 20%) |
| Nc1ccc(-c2nc3cc(Cl)c(Cl)cc3[nH]2)cc1 [I-360] | > 100 µM | B (an affinity (R3/R0) between 100% and 20%) |
| OCc1nc2cc(Cl)c(SCc3ccc(Cl)cc3Cl)cc2[nH]1 [I-361, (5-chloro-6-(2,4-dichlorobenzylthio)-1H-benzo[d]imidazol-2-yl)methanol] | 100 to 300 µM | B (an affinity (R3/R0) between 100% and 20%) |
| O=C(O)c1ccc(-c2nc3cc(Cl)c(Cl)cc3[nH]2)cc1 [I-364, 4-(5,6-dichloro-1H-benzo[d]imidazol-2-yl)benzoic acid] | 100 to 300 µM | B (an affinity (R3/R0) between 100% and 20%) |
| CN1CCN(c2cccc(-c3nc4cc(Cl)c(Cl)cc4[nH]3)c2)CC1 [I-367] | > 100 µM | B (an affinity (R3/R0) between 100% and 20%) |
| Clc1cc2nc(-c3ccnc(-c4ccccc4)c3)[nH]c2cc1Cl [I-368] | > 100 µM | B (an affinity (R3/R0) between 100% and 20%) |
| N#Cc1ccc(-c2nc3cc(Cl)c(Cl)cc3[nH]2)cc1 [I-370, 4-(5,6-dichloro-1H-benzo[d]imidazol-2-yl)benzonitrile] | 10 to 100 µM | B (an affinity (R3/R0) between 100% and 20%) |
| OCc1nc2c(Sc3ccc(Cl)cc3Cl)c(Cl)c(Cl)cc2[nH]1 [I-371, (5,6-dichloro-4-(2,4-dichlorophenylthio)-1H-benzo[d]imidazol-2-yl)methanol] | 10 to 100 µM | B (an affinity (R3/R0) between 100% and 20%) |
| OCc1nc2c(OCC3CC=CC3)c(Cl)c(Cl)cc2[nH]1 [I-377] | > 100 µM | B (an affinity (R3/R0) between 100% and 20%) |
| Clc1cc2nc(-c3ccncc3)[nH]c2cc1Cl [I-378, 5,6-dichloro-2-(pyridin-4-yl)-1H-benzo[d]imidazole] | 10 to 100 µM | B (an affinity (R3/R0) between 100% and 20%) |
| OCc1nc2cc(Cl)c(OCCc3ccc(Cl)cc3)cc2[nH]1 [I-380, (5-chloro-6-(4-chlorophenethoxy)-1H-benzo[d]imidazol-2-yl)methanol] | 10 to 100 µM | B (an affinity (R3/R0) between 100% and 20%) |
| OCc1nc2cc(OCc3cccc(F)c3)c(Cl)cc2[nH]1 [I-484, (6-chloro-5-(3-fluorobenzyloxy)-1H-benzo[d]imidazol-2-yl)methanol] | 100 to 300 µM | B (an affinity (R3/R0) between 100% and 20%) |
